Measured values from US20150147276A1, “NANOTHERAPEUTICS FOR DRUG TARGETING” (PRESIDENT AND FELLOWS OF HARVARD COLLEGE, priority 2012, published 2015).
Entries after “also recorded” stand apart in the source; their conditions may differ.

Legend:
[1] = system: thrombus in FeCl3-injured mesenteric arteries; assay: Mouse ferric chloride arterial injury (thrombosis) model; format: in vivo; details: bolus, same tPA dose (50 ng)
Method: A previously described model was used with minor modifications (16). In brief, male C57BL/6 mice (3-4 weeks old) were anesthetized with 2.5% tribromoethanol (0.15 ml/10 g) and injected with fluorescently labeled platelets (calceinRed/Orange, ˜1×10^9 platelets/kg). An incision was made through the abdominal wall to expose the mesentery and arterioles (˜100 μm in diameter) were visualized using a Zeiss Axiovert 135-inverted microscope (objectives: 10× and 32×, Carl Zeiss Microlmaging, Inc.) and recorded on videotape. Whatman filter paper saturated with FeCl3 (10%) solution was applied topically for 5 min, which caused denudation of the endothelium. […] Following this bolus injection, the vessels were monitored until full occlusion occurred (blood flow stopped) and lasted for more than 10 seconds. The shear rate was calculated using an optical Doppler velocity meter (Microcirculation Research Institute, Texas A&M College of Medicine, College Station, Tex.) (17). […]

fibrin clots = target: T1, fibrin clots (Homo sapiens, UniProt P02671+P02675+P02679); assay: Microfluidic model of vascular embolism (fibrin clot lysis); format: biochemical; details: 50 ng/ml tPA, same flow conditions
T1 construct: purchased Enzyme Research Laboratories, IN (fibrinogen, α-thrombin); Cell Sciences, MA (plasminogen)
T1 sequence (P02671 36-629 limits assumed): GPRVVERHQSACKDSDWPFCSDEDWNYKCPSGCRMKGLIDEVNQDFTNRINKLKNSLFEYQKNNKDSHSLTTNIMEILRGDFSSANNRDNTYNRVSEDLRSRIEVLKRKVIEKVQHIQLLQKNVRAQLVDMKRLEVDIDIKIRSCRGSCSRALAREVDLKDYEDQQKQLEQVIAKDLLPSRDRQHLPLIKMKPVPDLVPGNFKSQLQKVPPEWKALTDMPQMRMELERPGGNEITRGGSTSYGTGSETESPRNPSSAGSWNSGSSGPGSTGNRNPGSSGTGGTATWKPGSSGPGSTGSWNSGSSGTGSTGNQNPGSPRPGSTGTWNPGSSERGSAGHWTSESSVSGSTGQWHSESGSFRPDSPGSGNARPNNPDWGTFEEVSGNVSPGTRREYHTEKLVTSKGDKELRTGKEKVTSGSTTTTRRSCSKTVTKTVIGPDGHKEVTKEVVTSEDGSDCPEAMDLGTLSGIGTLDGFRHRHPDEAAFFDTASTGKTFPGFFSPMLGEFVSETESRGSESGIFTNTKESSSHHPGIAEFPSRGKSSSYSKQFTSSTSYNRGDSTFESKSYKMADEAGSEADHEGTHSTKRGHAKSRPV
T1 sequence (P02675 45-491 limits assumed): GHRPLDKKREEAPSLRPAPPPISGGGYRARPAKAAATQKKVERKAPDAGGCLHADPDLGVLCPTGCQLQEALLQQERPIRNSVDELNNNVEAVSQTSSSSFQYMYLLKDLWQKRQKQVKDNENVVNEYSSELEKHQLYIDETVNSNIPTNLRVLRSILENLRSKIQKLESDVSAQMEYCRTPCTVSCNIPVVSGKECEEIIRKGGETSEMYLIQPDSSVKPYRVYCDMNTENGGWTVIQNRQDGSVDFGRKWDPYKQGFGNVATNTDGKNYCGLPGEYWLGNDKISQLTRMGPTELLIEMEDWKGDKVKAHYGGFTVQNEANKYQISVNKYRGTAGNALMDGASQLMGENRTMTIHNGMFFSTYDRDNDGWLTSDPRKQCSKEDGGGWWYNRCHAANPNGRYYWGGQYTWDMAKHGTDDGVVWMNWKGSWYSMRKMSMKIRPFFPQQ
T1 sequence (P02679 27-437 isoform P02679-2 limits assumed): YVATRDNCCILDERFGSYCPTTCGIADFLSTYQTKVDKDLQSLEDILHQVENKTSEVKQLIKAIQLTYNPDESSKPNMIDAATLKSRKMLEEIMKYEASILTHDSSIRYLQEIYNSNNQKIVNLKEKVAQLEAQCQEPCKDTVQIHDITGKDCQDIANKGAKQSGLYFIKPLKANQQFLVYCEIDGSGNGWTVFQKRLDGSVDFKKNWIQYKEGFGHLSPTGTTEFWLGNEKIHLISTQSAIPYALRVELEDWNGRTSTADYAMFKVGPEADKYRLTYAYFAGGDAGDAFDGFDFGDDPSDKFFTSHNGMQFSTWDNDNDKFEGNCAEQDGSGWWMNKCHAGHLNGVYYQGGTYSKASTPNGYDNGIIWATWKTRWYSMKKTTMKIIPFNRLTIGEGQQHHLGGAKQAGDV
Source text: Microfluidic devices with a narrowed cross-sectional area (80 μm high×0.5 mm wide×200 mm long) were fabricated using soft lithography as described above. Fibrin clots formed as described below that were infused into the main channel lodged and obstructed the flow in these smaller channels. A solution of tPA or tPA coated SA-NTs was infused at a flow rate corresponding to a shear stress of 10 dyne/cm2 in an unobstructed channel. Prior to infusion of the tPA solutions, bovine plasminogen (Cell Sciences, MA) was added to a final concentration of 2.2 μM (30). During the fibrinolysis process, the fibrin clot sizes were monitored in real-time (images acquired every 30 sec) on an inverted Zeiss microscope.
(§1) Fibrin clots were formed by adding CaCl2 (20 mM) and human α-thrombin (1 units/ml final concentrations, Enzyme Research Laboratories, IN) to human fibrinogen (5 mg/ml, Enzyme Research Laboratories, IN), as previously described (23, 31). This solution was immediately added drop-wise to a solution of canola oil with Span-80 (0.05%). The emulsion was mixed at 350 rpm for 4 hr and centrifuged (500 g, 5 min), followed by repeated washing in ethanol and water. The diameter of the resulting fibrin beads was determined by optical microscopy to be ˜250 μm. By adjusting the mixing speed in the described protocol, fibrin beads of smaller defined sizes were produced.

[2] = system: fibrin clots in pulmonary arteries; assay: Ex vivo mouse pulmonary embolism model (lung ventilation-perfusion)
Method: as §1
6-8 week-old C57BL/6 male mice (Jackson Laboratory, Bar Harbor, Me.) were weighed and anesthetized with Avertin (200 mg/kg IP). The trachea was incised via surgical tracheotomy, and cannulated with a blunted 22G stainless steel needle tip. The lungs were subsequently ventilated at a rate of 60 breaths/min, with a Peak Inspiratory Pressure (Pip) of 10 cm H2O and a Positive End Expiratory Pressure (Peep) of 3 cmH2O with compressed air using a mouse ventilator (VCM-R, Hugo Sachs Elektroniks, Germany). Ex vivo ventilation and perfusion of the mouse lung was performed using an IL1 ex vivo mouse lung ventilation-perfusion system (Harvard Apparatus, Natick, Mass.), (32). Following initiation of mechanical ventilation, the chest was opened via thoracotomy, and heparin (100 IU) was injected into the right ventricle. […] A suture was placed around the pulmonary artery and aorta. Cannulae made from polyethylene tubing (PE90 (0.86 mm ID, 1.7 mm OD)) were placed in the pulmonary artery (PA) and left atrium (LA), and lungs were perfused with RPMI-1640 with 4% Bovine Albumin (PROBUMIN™ Reagent Grade, Billerica, Mass.) and 0.7 g NaCl/500 ml via a roller pump (ISM 834C, Ismatec SA, Switzerland) set at a constant flow rate of 0.5 ml/min in a recirculating system with a system volume of 6 ml. Perfusate and lung temperatures were maintained at 37° C. by housing the entire ex-vivo ventilation perfusion system inside a standard cell incubator without CO2 (Forma Scientific, Ohio). Humidity was maintained in the range […]. Pulmonary arterial and left atrial pressures and airway flow and pressures were recorded with dedicated Type 379 vascular pressure and DLP2.5 flow and MPX Type 399/2airway pressure transducers and TAM-A amplifiers (Hugo Sachs Elektroniks, Germany). Vascular pressures were zeroed at the mid lung level prior to each experiment and recorded using Polyview16© software (Grass Technologies, West Warwick, R.I.). Prior to injection of experimental fibrin clots (prepared as above), the measured pressures were allowed to stabilize and remain stable for a period of more than 10 minutes. A solution of fibrin clots suspended in perfusion medium was infused at a flow rate of 0.1 ml/min and mixed with the regular perfusion line entering the pulmonary artery. The fibrin clot suspension was infused until the pulmonary artery pressure increased to ˜three-fold higher than the baseline. The system was then allowed to equilibrate and remain stable for at least 10 minutes. Next, tPA-coated SA-NTs or free soluble tPA was added to the main perfusion line and circulated through the perfusion system. As in the microfluidic device experiments, when tPA was perfused, plasminogen was added to obtain a final concentration of 2.2 μM. Pulmonary artery and vein pressures were acquired continuously during the perfusion period. […]

tissue plasminogen activator [free tPA]
delay of time to full vascular occlusion [1]: did not produce any significant delay; also recorded: neither addition of free tPA, pre-dissociated tPA-NPs, nor heat-fused tPA-NP microaggregates (that do not dissociate in high shear) produced any detectable effects | reduction in clot size (fibrin clots): < 5% | effect on pulmonary artery pressure ([2]; 50 ng/ml): did not reduce pulmonary artery pressure | effect on pulmonary artery pressure ([2]; 50 ng/ml, listed as soluble tPA): failed to produce any significant response | effect on pulmonary artery pressure ([2]; 500 ng/ml (ten times higher dose)): did not reduce pulmonary artery pressure | effect on pulmonary artery pressure ([2]; 500 ng/ml (ten times higher dose), listed as soluble tPA): failed to produce any significant response | effect on pulmonary artery pressure ([2]; 5,000 ng/ml (100-fold higher dose)): produced similar effects
